Patent US12522606B2, “Modified pyrrolo- and pyrazolo-pyrimidines for prostate cancer therapy” (University of Washington, priority 2020, dated 2026)

Assays:
[1] = tested on: LNCaP cells; assay: Cell death in LNCaP cells, alone or in combination, 24 h (FIG. 6); format: cell-based
Method: FIG. 6 evaluation of Compound 1 and metformin in LNCaP cells. LNCaP cells were treated with Compound 1, oligomycin (Oli), 2-deoxy-d-glucose (2-DG), or metformin (Met), alone or in combination for 24 h.
FIGS. 2-4 provide additional results on the activity of the compounds of the disclosure. […] Co-administration of Compound 1 and metformin is illustrated in FIG. 6. LNCaP cells were treated with Compound 1, oligomycin (Oli), 2-deoxy-d-glucose (2-DG), or metformin (Met), alone or in combination for 24 h. […] None of compounds were sufficient to kill cells under the same conditions on their own.

[2] = tested on: prostate cancer tumor; conditions: 60 mg/kg, 2× daily; cited from earlier work

| SMILES | cell death in combination with oligomycin or metformin [1] | prostate cancer tumor growth in vivo [2] |
| --- | --- | --- |
| O=CC[C@@H](O)[C@H](O)[C@H](O)CO [Example 2-DG, 2-deoxy-d-glucose, reference compound] | cause cell death |  |
| Fc1ccc(Cl)cc1-c1nc(Nc2ccncc2)c2nccnc2n1 [SD-208] |  | decrease in prostate cancer tumor growth |
